Assay results published in patent US12723024B2 (priority 2021, dated 2026).
Counter-ions that a name gives are not always drawn. Like-named read-outs stand apart in the source and are kept apart here.

Key:
[1] = Solubility of diastereomeric salts in solvents; assay type: physicochemical; settings: 20 °C, read-out: Solubility @ 20-30° C.
Excerpt: Thus, in another highly preferred embodiment, DCM is used in step c).

Crystallinity by XRPD = assay type: physicochemical; settings: salt screening sample
Description: (§1) Obtained suspensions were taken out and centrifuged. Solids obtained was analysed by XRPD. Salts with high or medium crystallinity were further characterized (see Table 5).
(§2) According to the salt screening results (see Table 4), totally 19 potential salt hits were identified. All the potential salt hits were further investigated by Differential Scanning Calorimetry (DSC), Thermogravimetric analysis (TGA), H-NMR, Ion chromatography (IC), Karl Fischer titration (KF), and Polarized Light Microscopy (PLM) to confirm their identity and evaluate their physicochemical properties as shown in Table 5 below.

[2] = Thermogravimetric analysis (TGA) weight loss; assay type: physicochemical; settings: salt screening sample, at the temperature given (80-200° C.)
Excerpt: as §2

[3] = assay type: physicochemical; settings: salt screening sample
Excerpt: as §2

[4] = Salt screening (slurry crystallization); assay type: physicochemical; set-up: key to Salt screening result: (+) shows that a crystalline salt was formed; (−) physical mixtures; settings: for Salt screening result: slurry 50° C. then 25° C.; for Polymorph obtained in salt screening: XRPD
Description: About 45 mg was added to a suitable solvent and different equivalents of acids were added under stirring at 50° C. for about 2 hours and then at 25° C. for at least 32 hours. Ethanol, acetone, and ACN were used as screening solvents. When no precipitation was obtained or only a few solids were obtained, the solutions were placed at 5° C. for crystallization.
as §1

[5] = organic solvent or mixture, in Acetone
[6] = organic solvent or mixture, in DCM
[7] = organic solvent or mixture, in EtOAc
[8] = organic solvent or mixture, in EtOH
[9] = organic solvent or mixture, in Heptane
[10] = organic solvent or mixture, in IPA
[11] = organic solvent or mixture, in IPAC
[12] = organic solvent or mixture, in MEK
[13] = organic solvent or mixture, in MTBE
[14] = organic solvent or mixture, in MeOH
[15] = organic solvent or mixture, in THF
[16] = organic solvent or mixture, in Toluene

Compound	Crystallinity (Crystallinity by XRPD)	Weight loss (%) [2] [%]	Salt screening result ([4]; ACN)	Salt screening result ([4]; Acetone)	Polymorph obtained in salt screening ([4]; EtOH)	Salt screening result ([4]; EtOH)	other results
COc1cc(C(F)(F)F)c(OC)cc1[C@@H]1CCCNC1 [drawing 39, (−)-Di-p-anisoyl-L-tartaric acid salt of (S)-3-(2,5-dimethoxy-4-(trifluoromethyl)phenyl)piperidine (1:1)]	–	–	–	–	–	–	solubility ([1]; organic solvent or mixture, in 2-MeTHF): 50000 µg/mL; solubility ([1]; organic solvent or mixture, in ACN): 12000 µg/mL; solubility [1, 5]: < 10000 µg/mL; solubility [1, 6]: < 10000 µg/mL; solubility [1, 7]: < 10000 µg/mL; solubility [1, 8]: 12000 µg/mL; solubility [1, 9]: < 10000 µg/mL; solubility [1, 10]: < 10000 µg/mL; solubility [1, 11]: < 10000 µg/mL; solubility [1, 12]: < 10000 µg/mL; solubility [1, 13]: < 10000 µg/mL; solubility [1, 14]: 30000 µg/mL; solubility [1, 15]: 50000 µg/mL; solubility [1, 16]: < 10000 µg/mL; solubility ([1]; in Water): < 5000 µg/mL
COc1cc(C(F)(F)F)c(OC)cc1[C@@H]1CCCNC1.COc1cc(C(F)(F)F)c(OC)cc1[C@@H]1CCCNC1.O=C(O)/C=C/C(=O)O [Hemi-fumarate salt Polymorph B]	Medium	9.4	–	–	–	–	Water content (% w/w) [3]: 9.3% w/w
COc1cc(C(F)(F)F)c(OC)cc1[C@@H]1CCCNC1.N[C@@H](CCC(=O)O)C(=O)O [L-glutamate salt Polymorph A]	Low	4.8	–	–	–	–	Water content (% w/w) [3]: 8.6% w/w
COc1cc(C(F)(F)F)c(OC)cc1[C@@H]1CCCNC1.N[C@@H](CCC(=O)O)C(=O)O [L-glutamate salt Polymorph B]	Medium	6.6	–	–	–	–	Water content (% w/w) [3]: 6.9% w/w
COc1cc(C(F)(F)F)c(OC)cc1[C@@H]1CCCNC1.C[C@@H](O)C(=O)O [D-lactate salt Polymorph A]	High	–	Clear solution	Thin suspension	Polymorph A	+	–
COc1cc(C(F)(F)F)c(OC)cc1[C@H]1CCCNC1 [(−)-Di-p-anisoyl-L-tartaric acid salt of (R)-3-(2,5-dimethoxy-4-(trifluoromethyl)phenyl)piperidine (1:1)]	–	–	–	–	–	–	solubility [1, 5]: < 10000 µg/mL; solubility [1, 6]: > 400000 µg/mL; solubility [1, 7]: < 10000 µg/mL; solubility [1, 8]: 25000 µg/mL; solubility [1, 9]: < 10000 µg/mL; solubility [1, 10]: < 10000 µg/mL; solubility [1, 11]: < 10000 µg/mL; solubility [1, 12]: < 10000 µg/mL; solubility [1, 13]: < 10000 µg/mL; solubility [1, 14]: 40000 µg/mL; solubility [1, 15]: 45000 µg/mL; solubility [1, 16]: < 10000 µg/mL; solubility ([1]; in Water): < 5000 µg/mL
Glutamic acid	–	–	+	+	Polymorph A	+	Polymorph obtained in salt screening ([4]; ACN): Polymorph C
Gentisic acid	–	–	Clear solution	Clear solution	–	Clear solution	–
COc1cc(C(F)(F)F)c(OC)cc1[C@@H]1CCCNC1.O=S(=O)(O)O [Sulfate salt Polymorph A]	High	8.2	+	+	Polymorph A	+	Polymorph obtained in salt screening ([4]; ACN): Polymorph A; Polymorph obtained in salt screening ([4]; Acetone): Polymorph A
Citric acid	–	–	Clear solution	Clear solution	–	Clear solution	–
COc1cc(C(F)(F)F)c(OC)cc1[C@@H]1CCCNC1.O=P(O)(O)O [Phosphate salt Polymorph A]	Medium	0.7	Hazy solution	+	–	Clear solution	Polymorph obtained in salt screening ([4]; Acetone): Polymorph A
COc1cc(C(F)(F)F)c(OC)cc1[C@@H]1CCCNC1.COc1cc(C(F)(F)F)c(OC)cc1[C@@H]1CCCNC1.O=C(O)C(O)C(O)C(=O)O [Hemi L-tartrate salt Polymorph A]	Medium	4.0	+	+	Polymorph A	+	Polymorph obtained in salt screening ([4]; ACN): Polymorph A; Polymorph obtained in salt screening ([4]; Acetone): Polymorph A
